In ChEMBL document CHEMBL4765295, “Synthesis, pharmacological profile and 2D-QSAR studies of curcumin-amino acid conjugates as potential drug candidates” (Eur J Med Chem, 2020):
Values joined by “and” are separate entries in the source; they are usually repeats but may differ in a detail not shown here. Equal values may be shown once.

What was measured:
Rattus norvegicus [1] = assay: Antiinflammatory activity in Wistar rat model of carrageenan-induced paw edema assessed as reduction in thickness of paw edema at 10 mg/kg, ip pretreated for 1 hr followed by carrageenan challenge and measured after 1 hr (reference value: 2.41 +/-0.05 mm); type: functional; settings: time 1 hr after carrageenan
Rattus norvegicus [2] = assay: Anti-inflammatory activity in Wistar rat assessed as inhibition of carrageenan-induced paw edema at 10 mg/kg, ip pretreated for 1 hr followed by carrageenan challenge and measured after 1 hr relative to control (reference value: 0.00 +/-0.02 %); type: functional; settings: time 2 hrs
Rattus norvegicus [3] = assay: Antiinflammatory activity in Wistar rat model of carrageenan-induced paw edema assessed as reduction in thickness of paw edema at 10 mg/kg, ip pretreated for 1 hr followed by carrageenan challenge and measured after 2 hrs (reference value: 2.06 +/-0.09 mm); type: functional; settings: time 3 hrs
Rattus norvegicus [4] = assay: Anti-inflammatory activity in Wistar rat assessed as inhibition of carrageenan-induced paw edema at 10 mg/kg, ip pretreated for 1 hr followed by carrageenan challenge and measured after 2 hr relative to control (reference value: 0.00 +/-0.03 %); type: functional; settings: time 3 hrs
Rattus norvegicus [5] = assay: Antiinflammatory activity in Wistar rat model of carrageenan-induced paw edema assessed as reduction in thickness of paw edema at 10 mg/kg, ip pretreated for 1 hr followed by carrageenan challenge and measured after 3 hrs (reference value: 1.79 +/-0.07 mm); type: functional; settings: time 4 hrs
Rattus norvegicus [6] = assay: Anti-inflammatory activity in Wistar rat assessed as inhibition of carrageenan-induced paw edema at 10 mg/kg, ip pretreated for 1 hr followed by carrageenan challenge and measured after 3 hr relative to control (reference value: 0.00 +/-0.1 %); type: functional; settings: time 4 hrs
Rattus norvegicus [7] = assay: Antiinflammatory activity in Wistar rat model of carrageenan-induced paw edema assessed as reduction in thickness of paw edema at 10 mg/kg, ip pretreated for 1 hr followed by carrageenan challenge and measured after 4 hrs (reference value: 1.40 +/-0.10 mm); type: functional; settings: time 5 hrs
Rattus norvegicus [8] = assay: Anti-inflammatory activity in Wistar rat assessed as inhibition of carrageenan-induced paw edema at 10 mg/kg, ip pretreated for 1 hr followed by carrageenan challenge and measured after 4 hr relative to control (reference value: 0.00 +/-0.4 %); type: functional; settings: time 5 hrs
Rattus norvegicus [9] = assay: Antiinflammatory activity in Wistar rat model of carrageenan-induced paw edema assessed as reduction in thickness of paw edema at 10 mg/kg, ip pretreated for 1 hr followed by carrageenan challenge and measured after 24 hrs (reference value: 0.83 +/-0.08 mm); type: functional; settings: time 25 hrs
Rattus norvegicus [10] = assay: Anti-inflammatory activity in Wistar rat assessed as inhibition of carrageenan-induced paw edema at 10 mg/kg, ip pretreated for 1 hr followed by carrageenan challenge and measured after 24 hr relative to control (reference value: 0.00 +/-0.3 %); type: functional; settings: time 25 hrs
Rattus norvegicus [11] = assay: Anti-inflammatory activity in Wistar rat assessed as inhibition of carrageenan-induced paw edema at 10 mg/kg, ip pretreated for 1 hr followed by carrageenan challenge and measured after 4 hr relative to indomethacin; type: functional; settings: time 5 hrs
Splenocyte [12] = assay: Immunomodulatory activity in Swiss albino mouse splenocytes assessed as cell viability at 10 uM by measuring stimulation index incubated for 72 hrs in presence of mitogenic stimulus phytohaemagglutinin by MTT assay (reference value: 1.00 +/- 0.24); type: functional
Splenocyte [13] = assay: Immunomodulatory activity in Swiss albino mouse splenocytes assessed as cell viability at 10 uM by measuring inhibition of stimulation index incubated for 72 hrs in presence of mitogenic stimulus phytohaemagglutinin by MTT assay relative to indomethacin; type: functional; settings: read-out: Activity
Peritoneal macrophage [14] = assay: Antiinflammatory activity in […] mouse Peritoneal macrophages assessed as reduction in LPS-induced NO production by measuring reduction in stimulation index at 10 uM preincubated for 1 hr followed by LPS stimulation measured after 24 hrs by Griess method (reference value: 27.31 +/- 2.56 uM); type: functional; settings: time 25 hrs
Peritoneal macrophage [15] = assay: Antiinflammatory activity in […] mouse Peritoneal macrophages assessed as inhibition of LPS-induced NO production at 10 uM preincubated for 1 hr followed by LPS stimulation measured after 24 hrs by Griess method relative to control (reference value: 0.0 %); type: functional; set-up: scale not given: the % may be the effect or the level left; settings: time 25 hrs
Staphylococcus aureus = assay: Antibacterial activity against Staphylococcus aureus ATCC 25923 incubated for 18 hrs by agar dilution method; type: functional
Streptococcus pyogenes = assay: Antibacterial activity against Streptococcus pyogenes ATCC 19615 incubated for 18 hrs by agar dilution method; type: functional
Salmonella typhimurium = assay: Antibacterial activity against Salmonella typhimurium ATCC 19430 incubated for 18 hrs by agar dilution assay; type: functional, Salmonella enterica subsp. enterica serovar Typhimurium; settings: Salmonella enterica
Pseudomonas aeruginosa = assay: Antibacterial activity against Pseudomonas aeruginosa ATCC 27853 incubated for 18 hrs by agar dilution assay; type: functional
Candida albicans = assay: Antifungal activity against Candida albicans incubated for 18 to 24 hrs by CLSI method; type: functional; settings: time 18-24 hrs
A549 = assay: Antiproliferative activity against human A549 cells assessed as inhibition of cell growth after 72 hrs by MTT assay; type: functional, cell-based; settings: A549, 72 h
MCF7 = assay: Antiproliferative activity against human MCF7 cells assessed as inhibition of cell growth after 72 hrs by MTT assay; type: functional, cell-based; settings: MCF7, 72 h
PC-3 = assay: Antiproliferative activity against human PC3 cells assessed as inhibition of cell growth after 72 hrs by MTT assay; type: functional, cell-based; settings: PC-3, 72 h

Compound	Activity (Rattus norvegicus [1]) [mm]	inhibition in vivo at 10 mg/kg (Rattus norvegicus [2]) [%]	Activity (Rattus norvegicus [3]) [mm]	inhibition in vivo at 10 mg/kg (Rattus norvegicus [4]) [%]	Activity (Rattus norvegicus [5]) [mm]	inhibition in vivo at 10 mg/kg (Rattus norvegicus [6]) [%]	Activity (Rattus norvegicus [7]) [mm]	inhibition in vivo at 10 mg/kg (Rattus norvegicus [8]) [%]	Activity (Rattus norvegicus [9]) [mm]	inhibition in vivo at 10 mg/kg (Rattus norvegicus [10]) [%]	inhibition in vivo at 10 mg/kg (Rattus norvegicus [11]) [%]	Activity_index (Splenocyte [12])	viability at 10 µM (Splenocyte [13]) [%]	Activity (Peritoneal macrophage [14]) [µM]	Activity (Peritoneal macrophage [15]) [%]	MIC (Staphylococcus aureus)	MIC (Streptococcus pyogenes)	MIC (Salmonella typhimurium)	MIC (Pseudomonas aeruginosa)	IC50 (PC-3) [µM]	further results
COc1cc(/C=C/C(=O)/C=C(O)/C=C/c2ccc(OC(=O)[C@@H](N)C(C)C)c(OC)c2)ccc1OC(=O)[C@@H](N)C(C)C.Cl.Cl	0.97	60	1.4	50	0.93	48	0.75	46	0.71	14	53	2.05	59	20.65	24.37	0.25 µg/mL and 0.391 µM	0.125 µg/mL and 0.195 µM	0.125 µg/mL and 0.195 µM	0.25 µg/mL and 0.391 µM	34.6	MIC (Candida albicans): 0.125 µg/mL and 0.195 µM; IC50 (A549): 20.4 µM; IC50 (MCF7): 10.4 µM
CC[C@H](C)[C@H](N)C(=O)Oc1ccc(/C=C/C(=O)/C=C(O)/C=C/c2ccc(OC(=O)[C@@H](N)[C@@H](C)CC)c(OC)c2)cc1OC.Cl.Cl	1.61	33	1.31	36	0.94	47	0.34	76	0.58	30	87	1.59	76	17.63	35.45	0.25 µg/mL and 0.374 µM	0.5 µg/mL and 0.749 µM	0.125 µg/mL and 0.187 µM	0.25 µg/mL and 0.374 µM	34.4	MIC (Candida albicans): 0.125 µg/mL and 0.187 µM; IC50 (A549): 20.9 µM; IC50 (MCF7): 10.2 µM
COc1cccc2c1C(=O)c1c(O)c3c(c(O)c1C2=O)C[C@@](O)(C(=O)CO)C[C@@H]3O[C@H]1C[C@H](N)[C@H](O)[C@H](C)O1 [DOXORUBICIN]																				38	
